Assays:
Assay type in all cases: binding
Hp-FAR-2 [1] = biological target: T1, Hp-FAR-2 (Heligmosomoides polygyrus, UniProt A0A183GLK6); experiment: DAUDA displacement fluorescence competition ([…] excess, […])
T1 construct: mature Hp-FAR-2, amino acids 18–180, N-terminal 6-His-tag

Hp-FAR-2 [2] = biological target: T1, Hp-FAR-2; experiment: DAUDA displacement fluorescence competition ([…] and […])
Hp-FAR-2 [3] = biological target: T1, Hp-FAR-2; experiment: retinol fluorescence titration with purified Hp-FAR-2
Hp-FAR-2 [4] = biological target: T1, Hp-FAR-2; experiment: fluorescence titration of DAUDA with purified Hp-FAR-2 (blue shift)

T1 sequence (A0A183GLK6 entry or part of it): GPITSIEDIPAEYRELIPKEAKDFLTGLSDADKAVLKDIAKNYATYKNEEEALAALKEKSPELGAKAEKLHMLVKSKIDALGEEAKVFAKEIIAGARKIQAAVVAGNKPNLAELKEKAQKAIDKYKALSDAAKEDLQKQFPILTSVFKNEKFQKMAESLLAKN

Structure (SMILES) | DAUDA displacement fluorescence competition (10-fold excess, 10 μM) (Hp-FAR-2 [1]) | DAUDA displacement fluorescence competition (1:1 and 1:10) (Hp-FAR-2 [2]) | also measured
CCCCC/C=C\C/C=C\C/C=C\C/C=C\CCCC(=O)O [AA, arachidonic acid] | All fatty acids except α-linolenic acid significantly displaced DAUDA compared to DAUDA alone | – | –
CC/C=C\C/C=C\C/C=C\C/C=C\C/C=C\CCCC(=O)O [EPA, eicosapentaenoic acid] | All fatty acids except α-linolenic acid significantly displaced DAUDA compared to DAUDA alone | – | –
CC/C=C\C/C=C\C/C=C\C/C=C\C/C=C\C/C=C\CCC(=O)O [DHA, docosahexaenoic acid] | – | Oleic acid, linoleic acid, and docosahexaenoic acid all significantly displaced DAUDA | –
CC1=C(/C=C/C(C)=C/C=C/C(C)=C/CO)C(C)(C)CCC1 [retinol] | – | – | Kd (Hp-FAR-2 [3]): 3.24 µM
CN(C)c1cccc2c(S(=O)(=O)NCCCCCCCCCCC(=O)O)cccc12 [DAUDA] | – | – | Kd (Hp-FAR-2 [4]): 3.16 µM
CCCCCCCC/C=C\CCCCCCCC(=O)O [OA, oleic acid] | – | Oleic acid, linoleic acid, and docosahexaenoic acid all significantly displaced DAUDA | –
CCCCC/C=C\C/C=C\CCCCCCCC(=O)O [LA, linoleic acid] | – | Oleic acid, linoleic acid, and docosahexaenoic acid all significantly displaced DAUDA | –
CCCCCCCCCCCCCCCC(=O)O [PA, palmitic acid] | All fatty acids except α-linolenic acid significantly displaced DAUDA compared to DAUDA alone | – | –
